Reference: patent EP0187355A1, “Process for preparing beta-lactam antibiotics” (E.R. Squibb & Sons, Inc., priority 1981, dated 1982)
Structures can show the parent of a compound that is named as a salt.

What was measured:
Experiment in all cases: MIC, agar dilution
Assay type in all cases: cell-based
[1] = system: Acinetobacter calcoaceticus, 8333; conditions: Acinetobacter calcoaceticus, 8333, 18 h, K-10 agar, 10^4 CFU, 37°C, read-out: M.I.C.
Procedure, shortened: (§1)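 Test strains are first grown in broth at 37°C for 18–20 hours, then diluted 1:100. Compounds are serially halved and mixed into K-10 agar at final levels from 100 to 0.05 µg/ml. Each plate receives about 10^4 CFU per organism, and growth is scored after 18 hours at 37°C.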

[2] = system: Citrobacter freundii, 9518; conditions: K-10 agar, 10^4 CFU, 37°C, 18 hours, read-out: M.I.C.
Procedure, shortened: as §1

[3] = system: Enterobacter aerogenes, 10078; conditions: Klebsiella aerogenes, 10078, 18 h, Enterobacter aerogenes, 10078; K-10 agar, 10^4 CFU, 37°C, 18 hours; read-out: M.I.C.
Procedure, shortened: as §1

Escherichia coli, 10857 = conditions: Escherichia coli, 10857, 18 h, K-10 agar, 10^4 CFU, 37°C
Procedure, shortened: as §1

Escherichia coli, 10896 = conditions: K-10 agar, 10^4 CFU, 37°C, 18 hours
Procedure, shortened: as §1

Escherichia coli, 10909 = conditions: K-10 agar, 10^4 CFU, 37°C, 18 hours
Procedure, shortened: as §1

Escherichia coli, 8294 = conditions: Escherichia coli, 8294, 18 h, K-10 agar, 10^4 CFU, 37°C
Procedure, shortened: as §1

[4] = system: Klebsiella aerogenes, 10440; conditions: K-10 agar, 10^4 CFU, 37°C, 18 hours, read-out: M.I.C.
Procedure, shortened: as §1

[5] = system: Klebsiella pneumoniae, 9527; conditions: Klebsiella pneumoniae, 9527, 18 h, K-10 agar, 10^4 CFU, 37°C, read-out: M.I.C.
Procedure, shortened: as §1

Proteus mirabilis, 3855 = conditions: Proteus mirabilis, 3855, 18 h, K-10 agar, 10^4 CFU, 37°C, read-out: M.I.C.
Procedure, shortened: as §1

Proteus rettgeri, 8479 = conditions: Providencia rettgeri, K-10 agar, 10^4 CFU, 37°C, 18 hours, read-out: M.I.C.
Procedure, shortened: as §1

Proteus vulgaris, 9416 = conditions: K-10 agar, 10^4 CFU, 37°C, 18 hours, read-out: M.I.C.
Procedure, shortened: as §1

[6] = system: Pseudomonas aeruginosa, 8329; conditions: K-10 agar, 10^4 CFU, 37°C, 18 hours, read-out: M.I.C.
Procedure, shortened: as §1

[7] = system: Pseudomonas aeruginosa, 9545; conditions: Pseudomonas aeruginosa, 9545, 18 h, K-10 agar, 10^4 CFU, 37°C, read-out: M.I.C.
Procedure, shortened: as §1

Salmonella typhosa, 1195 = conditions: Salmonella enterica, TYPHOSA, 18 h, K-10 agar, 10^4 CFU, 37°C
Procedure, shortened: as §1

[8] = system: Serratia marcescens, 9783; conditions: Serratia marcescens, 9783, 18 h, K-10 agar, 10^4 CFU, 37°C, read-out: M.I.C.
Procedure, shortened: as §1

Shigella sonnei, 8449 = conditions: Shigella sonnei, 8449, 18 h, K-10 agar, 10^4 CFU, 37°C
Procedure, shortened: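 Overnight broth cultures (37°C, 18–20 h) were diluted 1:100 and spotted onto K-10 agar plates containing twofold compound dilutions (final 100 to 0.05 µg/ml), giving 10^4 CFU per spot. After 18 h at 37°C, MIC was read as the lowest concentration inhibiting growth.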

[9] = system: Staphylococcus aureus, 10165; conditions: Staphylococcus aureus, 10165; K-10 agar, 10^4 CFU, 37°C, 18 hours; read-out: M.I.C.
Procedure, shortened: as §1

[10] = system: Staphylococcus aureus, 1276; conditions: Staphylococcus aureus, 1276; K-10 agar, 10^4 CFU, 37°C, 18 hours; read-out: M.I.C.
Procedure, shortened: as §1

[11] = system: Staphylococcus aureus, 2399; conditions: Staphylococcus aureus, 2399, 18 h, Staphylococcus aureus, 2399; K-10 agar, 10^4 CFU, 37°C, 18 hours; read-out: M.I.C.
Procedure, shortened: as §1

[12] = system: Staphylococcus aureus, 2400; conditions: Staphylococcus aureus, 2400; K-10 agar, 10^4 CFU, 37°C, 18 hours; read-out: M.I.C.
Procedure, shortened: as §1

[13] = system: Streptococcus faecalis, 9011; conditions: Enterococcus faecalis; Streptococcus faecalis, 9011; K-10 agar, 10^4 CFU, 37°C, 18 hours; read-out: M.I.C.
Procedure, shortened: as §1

[14] = system: Enterobacter cloacae, 8236; conditions: Enterobacter cloacae, 8236, 18 h, K-10 agar, 10^4 CFU, 37°C
Procedure, shortened: (§2)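 Broth cultures grown 18-20 h at 37°C, diluted 1:100 in K-10 broth, applied by multipoint inoculator at 10^4 CFU onto K-10 agar holding twofold compound dilutions, 100 to 0.05 µg/ml final. MIC taken as lowest concentration inhibiting growth.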

Micrococcus luteus, 2495 = conditions: Micrococcus luteus, 2495, 18 h, K-10 agar, 10^4 CFU, 37°C, read-out: M.I.C.
Procedure, shortened: as §2

[15] = system: Streptococcus agalactiae, 9287; conditions: Streptococcus agalactiae, 9287, 18 h, K-10 agar, 10^4 CFU, 37°C, read-out: M.I.C.
Procedure, shortened: as §2

SMILES | MIC [1] | MIC [2] | MIC [3] | MIC (Escherichia coli, 10857) | MIC (Escherichia coli, 10896) | MIC (Escherichia coli, 10909) | MIC (Escherichia coli, 8294) | MIC [4] | MIC [5] | MIC (Proteus mirabilis, 3855) | MIC (Proteus rettgeri, 8479) | MIC (Proteus vulgaris, 9416) | MIC [6] | MIC [7] | MIC (Salmonella typhosa, 1195) | MIC [8] | MIC (Shigella sonnei, 8449) | MIC [9] | MIC [10] | MIC [11] | further results
C[C@H]1[C@H](NC(=O)/C(=N\OC(C)(C)C(=O)OCc2ccc([N+](=O)[O-])cc2)c2csc(N)n2)C(=O)N1S(=O)(=O)O [Example 15, [3S-[3α(Z),4β]]-3-[[(2-Amino-4-thiazolyl)[[1,1-dimethyl-2-[(4-nitrophenyl)methoxy]-2-oxoethoxy]-imino]acetyl]amino]-4-methyl-2-oxo-1-azetidinesulfonic acid, potassium salt] | > 100 µg/mL | 25 µg/mL | 100 µg/mL | 0.4 µg/mL | 6.3 µg/mL | 6.3 µg/mL | 50 µg/mL | > 100 µg/mL | 12.5 µg/mL | 6.3 µg/mL | 1.6 µg/mL | 1.6 µg/mL | > 100 µg/mL | 12.5 µg/mL | 6.3 µg/mL | 50 µg/mL | 25 µg/mL | 50 µg/mL | 6.3 µg/mL | 6.3 µg/mL | MIC [12]: 12.5 µg/mL; MIC [13]: > 100 µg/mL; MIC [14]: 25 µg/mL; MIC (Micrococcus luteus, 2495): 1.6 µg/mL; MIC [15]: 0.8 µg/mL
C[C@H]1[C@H](NC(=O)C(=O)c2csc(N)n2)C(=O)N1S(=O)(=O)O [Example 27, (3S-trans)-3-[[(2-Amino-4-thiazolyl)oxoacetyl]-amino]-4-methyl-2-oxo-1-azetidinesulfonic acid, potassium salt] | > 100 µg/mL | 3.1 µg/mL | 6.3 µg/mL | 3.1 µg/mL | 3.1 µg/mL | 1.6 µg/mL | 6.3 µg/mL | 6.3 µg/mL | 6.3 µg/mL | 3.1 µg/mL | 0.4 µg/mL | 6.3 µg/mL | > 100 µg/mL | 50 µg/mL | 3.1 µg/mL | 3.1 µg/mL | 3.1 µg/mL | > 100 µg/mL | > 100 µg/mL | > 100 µg/mL | MIC [12]: > 100 µg/mL; MIC [13]: > 100 µg/mL; MIC [14]: 3.1 µg/mL; MIC (Micrococcus luteus, 2495): 100 µg/mL; MIC [15]: 12.5 µg/mL
COC1(NC(=O)Cc2ccccc2)C(=O)N(S(=O)(=O)O)C1C (stereo not drawn) [Example 29, (3S-trans)-3-Methoxy-4-methyl-2-oxo-3-[(phenylacetyl)-amino]-1-azetidinesulfonic acid, potassium salt] | > 100 µg/mL | > 100 µg/mL | > 100 µg/mL | > 100 µg/mL | 100 µg/mL | 100 µg/mL | > 100 µg/mL | > 100 µg/mL | 100 µg/mL | > 100 µg/mL | > 100 µg/mL | > 100 µg/mL | > 100 µg/mL | > 100 µg/mL | > 100 µg/mL | > 100 µg/mL | > 100 µg/mL | > 100 µg/mL | > 100 µg/mL | > 100 µg/mL | MIC [12]: > 100 µg/mL; MIC [13]: > 100 µg/mL; MIC [14]: > 100 µg/mL; MIC (Micrococcus luteus, 2495): > 100 µg/mL; MIC [15]: > 100 µg/mL
